Reference: ChEMBL document CHEMBL1201862, “PubChem BioAssay data set” (2004)
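Tested at 5 concentrations; 48 h exposure; 96-well plates; endpoints linearly interpolated, else capped at highest concentration. Here, GI50 denotes the concentration required for 50% inhibition of growth.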 The source made the active and inactive calls. Rule as the data show it: active = GI50 up to about 1.1 µM and inactive = higher.

Legend:
Assay in all cases: DTP human tumour cell line panel, 48 h
KM12 = system: KM12
SF-295 = system: SF-295
HT-29 = system: HT-29
UO-31 = system: UO-31
M14 = system: M14
HCT-116 = system: HCT-116
NCI-H23 = system: NCI-H23
SK-MEL-5 = system: SK-MEL-5
NCI-H226 = system: NCI-H226
SR = system: SR
LOX IMVI = system: LOX IMVI
HL-60 = system: HL-60
MOLT-4 = system: MOLT-4
PC-3 = system: PC-3
EKVX = system: EKVX
OVCAR-8 = system: OVCAR-8
RXF 393 = system: RXF 393
CCRF-CEM = system: CCRF-CEM
U-251 = system: U-251
SNB-75 = system: SNB-75

Structure (SMILES)	GI50 (KM12)	GI50 (SF-295)	GI50 (HT-29)	GI50 (UO-31)	GI50 (M14)	GI50 (HCT-116)	GI50 (NCI-H23)	GI50 (SK-MEL-5)	GI50 (NCI-H226)	GI50 (SR)	GI50 (LOX IMVI)	GI50 (HL-60)	GI50 (MOLT-4)	GI50 (PC-3)	GI50 (EKVX)	GI50 (OVCAR-8)	GI50 (RXF 393)	GI50 (CCRF-CEM)	GI50 (U-251)	GI50 (SNB-75)
Cc1cc(O)nc(/N=C(\N)Nc2ccc(Cl)cc2)n1	> 100 µM (inactive)	> 100 µM (inactive)	> 100 µM (inactive)	> 100 µM (inactive)	> 100 µM (inactive)	> 100 µM (inactive)	> 100 µM (inactive)	> 100 µM (inactive)	> 100 µM (inactive)	> 100 µM (inactive)	> 100 µM (inactive)	> 100 µM (inactive)	> 100 µM (inactive)	> 100 µM (inactive)	> 100 µM (inactive)	> 100 µM (inactive)	> 100 µM (inactive)	> 100 µM (inactive)	> 100 µM (inactive)	
CC(=O)OC1C[C@@H](C)C2(CC(c3ccoc3)OC2=O)C2CCC(O)C3(CO3)C12CO (some centres undefined)	> 100 µM (inactive)	> 100 µM (inactive)	> 100 µM (inactive)	> 100 µM (inactive)	> 100 µM (inactive)	> 100 µM (inactive)	> 100 µM (inactive)	> 100 µM (inactive)	> 100 µM (inactive)	> 100 µM (inactive)	> 100 µM (inactive)	> 100 µM (inactive)	> 100 µM (inactive)	> 100 µM (inactive)		> 100 µM (inactive)	> 100 µM (inactive)	> 100 µM (inactive)	> 100 µM (inactive)	> 100 µM (inactive)
COc1ccc(C(=O)/C=C/c2ccc(O)c(O)c2F)c(OC)c1	4.99 µM (inactive)	5.41 µM (inactive)	8.97 µM (inactive)	2.56 µM (inactive)	7.71 µM (inactive)	4.02 µM (inactive)	2.43 µM (inactive)	1.61 µM (inactive)	11.4 µM (inactive)	0.893 µM (active)	5.61 µM (inactive)		1.12 µM (inactive)	3.14 µM (inactive)	9.08 µM (inactive)	7.76 µM (inactive)	4.35 µM (inactive)	0.44 µM (active)	2.94 µM (inactive)	7.52 µM (inactive)
CC1(C)OC2COC3([C@@H]4OC(C)(C)O[C@@H]4CO)OC(C)(C)OC3C2O1 (some centres undefined)	> 100 µM (inactive)	> 100 µM (inactive)		> 100 µM (inactive)	> 100 µM (inactive)	> 100 µM (inactive)	> 100 µM (inactive)	> 100 µM (inactive)	> 100 µM (inactive)	> 100 µM (inactive)	> 100 µM (inactive)			> 100 µM (inactive)	> 100 µM (inactive)	> 100 µM (inactive)	> 100 µM (inactive)	> 100 µM (inactive)	> 100 µM (inactive)	> 100 µM (inactive)
CN1C(=O)CN(NC(=O)C2=C(O)c3ccc(Br)cc3S(=O)(=O)N2)C1=S	78.3 µM (inactive)	> 100 µM (inactive)	> 100 µM (inactive)	> 100 µM (inactive)	> 100 µM (inactive)	> 100 µM (inactive)	> 100 µM (inactive)	> 100 µM (inactive)	> 100 µM (inactive)	46.1 µM (inactive)	> 100 µM (inactive)	33 µM (inactive)	> 100 µM (inactive)	> 100 µM (inactive)	> 100 µM (inactive)	> 100 µM (inactive)	> 100 µM (inactive)	19.2 µM (inactive)	> 100 µM (inactive)	
CC(=O)OCCCOCn1c(Cc2ccccc2)c(C)c(=O)[nH]c1=O	> 100 µM (inactive)	> 100 µM (inactive)	> 100 µM (inactive)	> 100 µM (inactive)	> 100 µM (inactive)	> 100 µM (inactive)	> 100 µM (inactive)	> 100 µM (inactive)	> 100 µM (inactive)	> 100 µM (inactive)	> 100 µM (inactive)		> 100 µM (inactive)	> 100 µM (inactive)	> 100 µM (inactive)	> 100 µM (inactive)	> 100 µM (inactive)	> 100 µM (inactive)	> 100 µM (inactive)	> 100 µM (inactive)
Cc1ccc(S(=O)(=O)N/N=C2/CCCOC2)cc1	> 100 µM (inactive)	> 100 µM (inactive)	> 100 µM (inactive)	> 100 µM (inactive)	> 100 µM (inactive)	> 100 µM (inactive)	> 100 µM (inactive)	> 100 µM (inactive)	> 100 µM (inactive)	> 100 µM (inactive)	> 100 µM (inactive)	> 100 µM (inactive)	> 100 µM (inactive)	> 100 µM (inactive)	> 100 µM (inactive)	> 100 µM (inactive)	> 100 µM (inactive)	> 100 µM (inactive)	> 100 µM (inactive)	
Cc1cn(C(C)OCCN2C(=O)c3ccccc3C2=O)c(=O)[nH]c1=O (centres undefined)	> 100 µM (inactive)	> 100 µM (inactive)	> 100 µM (inactive)	> 100 µM (inactive)	> 100 µM (inactive)	> 100 µM (inactive)	> 100 µM (inactive)	> 100 µM (inactive)	> 100 µM (inactive)	> 100 µM (inactive)	> 100 µM (inactive)		> 100 µM (inactive)	> 100 µM (inactive)	> 100 µM (inactive)	> 100 µM (inactive)	> 100 µM (inactive)	> 100 µM (inactive)	> 100 µM (inactive)	> 100 µM (inactive)
Cc1cn2c(/C=C3/C(=O)Nc4ccccc43)c(-c3ccccc3)nc2s1	> 100 µM (inactive)	37.5 µM (inactive)	> 100 µM (inactive)	23.2 µM (inactive)	> 100 µM (inactive)	62.4 µM (inactive)	48.4 µM (inactive)	71.1 µM (inactive)		> 100 µM (inactive)	91 µM (inactive)	> 100 µM (inactive)	> 100 µM (inactive)	57.3 µM (inactive)	71.3 µM (inactive)	54.3 µM (inactive)	27 µM (inactive)	> 100 µM (inactive)	29.3 µM (inactive)	25.8 µM (inactive)
CCCOc1ccc(/C=C/C2=[N+](CCO)CCO2)cc1	> 100 µM (inactive)	> 100 µM (inactive)	> 100 µM (inactive)	> 100 µM (inactive)	> 100 µM (inactive)	> 100 µM (inactive)	> 100 µM (inactive)	> 100 µM (inactive)	> 100 µM (inactive)	> 100 µM (inactive)		> 100 µM (inactive)	> 100 µM (inactive)	> 100 µM (inactive)	> 100 µM (inactive)	> 100 µM (inactive)	> 100 µM (inactive)	> 100 µM (inactive)	> 100 µM (inactive)	> 100 µM (inactive)
Cc1ccc(SCC(CF)OCn2cc(F)c(=O)[nH]c2=O)cc1 (centres undefined)		> 100 µM (inactive)	> 100 µM (inactive)	> 100 µM (inactive)	> 100 µM (inactive)	> 100 µM (inactive)	> 100 µM (inactive)	> 100 µM (inactive)		> 100 µM (inactive)	> 100 µM (inactive)	76.9 µM (inactive)	> 100 µM (inactive)	> 100 µM (inactive)	> 100 µM (inactive)	> 100 µM (inactive)	> 100 µM (inactive)	55.2 µM (inactive)	> 100 µM (inactive)	
CC(=O)CCCCC(=O)Nc1ccc(CC(NC(=O)OC(C)(C)C)C(=O)NCC(=O)OCc2ccccc2)cc1 (centres undefined)	29.4 µM (inactive)	18.8 µM (inactive)	19.6 µM (inactive)	22.7 µM (inactive)	17.5 µM (inactive)	19.6 µM (inactive)	30.8 µM (inactive)	14.7 µM (inactive)	34.8 µM (inactive)	22.2 µM (inactive)	15.1 µM (inactive)	19.5 µM (inactive)	24.1 µM (inactive)	14.4 µM (inactive)	57.3 µM (inactive)	20 µM (inactive)	25.2 µM (inactive)		18.7 µM (inactive)	4.44 µM (inactive)
CC1=NN(c2nc(N)nc(/C(C#N)=C\c3ccc([N+](=O)[O-])s3)n2)C(C)(C)C1	0.316 µM (active)	2.96 µM (inactive)	0.265 µM (active)	0.167 µM (active)	0.298 µM (active)	0.244 µM (active)	0.76 µM (active)	0.625 µM (active)	2.39 µM (inactive)	0.018 µM (active)	0.157 µM (active)		0.138 µM (active)	0.165 µM (active)	0.817 µM (active)	0.113 µM (active)	0.236 µM (active)	0.0175 µM (active)	0.104 µM (active)	0.764 µM (active)
O=C1N(c2ccccc2)N=C2c3ccncc3C3=NN(c4ccccc4)C(=O)C123 (centres undefined)	0.556 µM (active)	4.37 µM (inactive)	> 39.6 µM (inactive)	2.35 µM (inactive)		> 29.7 µM (inactive)	> 70 µM (inactive)	7.55 µM (inactive)	> 100 µM (inactive)	79.6 µM (inactive)	0.411 µM (active)	0.619 µM (active)	0.504 µM (active)	2.43 µM (inactive)	> 100 µM (inactive)	> 100 µM (inactive)	> 100 µM (inactive)	> 40.9 µM (inactive)	> 100 µM (inactive)	> 100 µM (inactive)
CC(=O)OC(COc1ccc2c(c1)[n+]([O-])nc(N)[n+]2[O-])CN1CCCCC1 (centres undefined)	13.1 µM (inactive)		11.1 µM (inactive)	25.3 µM (inactive)	16.2 µM (inactive)	10.3 µM (inactive)	12.4 µM (inactive)	3.78 µM (inactive)	15.3 µM (inactive)	12.2 µM (inactive)		5.12 µM (inactive)	2.49 µM (inactive)	1.52 µM (inactive)		13.8 µM (inactive)	16.5 µM (inactive)	6.1 µM (inactive)	13.5 µM (inactive)	18.2 µM (inactive)
